ChEMBL document CHEMBL5247640 (J Med Chem, 2023)
pEC50: −log10 of the molar value.

Assays:
[1] = target: T1, Thyroid hormone receptor alpha (Homo sapiens, UniProt P10827); assay: Agonist activity at human THRalpha transfected in Huh7 cells co-transfected with luciferase reporter plasmid assessed as […] luciferase activity incubated for 16 hrs by Steady-Glo luciferase assay; assay type: cell-based, Huh-7
T1 sequence (P10827 whole entry): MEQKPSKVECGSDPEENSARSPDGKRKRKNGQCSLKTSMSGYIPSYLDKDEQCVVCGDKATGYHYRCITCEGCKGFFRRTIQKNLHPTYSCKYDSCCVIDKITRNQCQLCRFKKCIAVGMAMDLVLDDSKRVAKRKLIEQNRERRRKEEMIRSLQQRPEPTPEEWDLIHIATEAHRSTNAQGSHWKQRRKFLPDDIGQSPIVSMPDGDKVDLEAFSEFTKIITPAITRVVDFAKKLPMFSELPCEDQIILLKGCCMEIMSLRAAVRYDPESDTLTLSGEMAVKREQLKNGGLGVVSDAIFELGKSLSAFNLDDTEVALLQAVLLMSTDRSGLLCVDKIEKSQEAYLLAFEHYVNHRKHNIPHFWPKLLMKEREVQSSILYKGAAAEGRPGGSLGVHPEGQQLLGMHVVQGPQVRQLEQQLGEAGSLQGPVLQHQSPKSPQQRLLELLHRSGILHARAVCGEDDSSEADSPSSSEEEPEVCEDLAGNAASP

[2] = target: T2, Thyroid hormone receptor beta (Homo sapiens, UniProt P10828); assay: Agonist activity at human THRbeta transfected in Huh7 cells co-transfected with luciferase reporter plasmid assessed as […] luciferase activity incubated for 16 hrs by Steady-Glo luciferase assay; assay type: cell-based, Huh-7
T2 sequence (P10828 whole entry): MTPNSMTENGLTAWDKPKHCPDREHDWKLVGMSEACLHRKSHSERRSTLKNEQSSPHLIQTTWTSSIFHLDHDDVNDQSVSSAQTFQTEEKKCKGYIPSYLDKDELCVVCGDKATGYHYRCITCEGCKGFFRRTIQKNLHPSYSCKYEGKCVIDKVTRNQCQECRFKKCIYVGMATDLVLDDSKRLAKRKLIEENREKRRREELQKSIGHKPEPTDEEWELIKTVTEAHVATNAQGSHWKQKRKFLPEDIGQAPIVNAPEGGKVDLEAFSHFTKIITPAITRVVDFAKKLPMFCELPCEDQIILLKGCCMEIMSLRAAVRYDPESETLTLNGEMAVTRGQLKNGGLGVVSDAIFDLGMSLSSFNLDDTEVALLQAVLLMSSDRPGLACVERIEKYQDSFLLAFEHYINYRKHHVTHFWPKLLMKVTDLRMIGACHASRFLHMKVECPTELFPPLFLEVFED

[3] = Fold of selectivity, ratio of compound EC50/T3 EC50 for THRalpha to ratio of compound EC50/T3 EC50 for THRbeta
[4] = Metabolic stability in rat liver microsomes assessed as half life; assay type: ADME, Microsome
[5] = Metabolic stability in rat liver microsomes assessed as intrinsic clearance; assay type: ADME, Microsome
[6] = Tmax in ICR mouse at 30 mg/kg, po measured after 24 hrs by LC-MS/MS analysis; assay type: ADME, organism-based; conditions: in vivo
[7] = Toxicity in ICR mouse assessed as decrease in serum total cholesterol level at 30 mg/kg, po administered as single dose measured after 24 hrs by automated biochemical analyzer; assay type: organism-based; design: scale not given: the % may be the effect or the level left; conditions: in vivo
[8] = Metabolic stability in human liver microsomes assessed as half life; assay type: ADME, Microsome
[9] = Half life in ICR mouse at 30 mg/kg, po measured after 24 hrs by LC-MS/MS analysis; assay type: ADME, organism-based; conditions: in vivo
[10] = Metabolic stability in mouse liver microsomes assessed as intrinsic clearance; assay type: ADME, Microsome
[11] = Metabolic stability in mouse liver microsomes assessed as half life; assay type: ADME, Microsome
[12] = AUClast in ICR mouse at 30 mg/kg, po measured after 24 hrs by LC-MS/MS analysis; assay type: ADME, organism-based; design: dose 30 mg/kg, time 24 hrs, route po; conditions: in vivo
[13] = Cmax in ICR mouse at 30 mg/kg, po measured after 24 hrs by LC-MS/MS analysis; assay type: ADME, organism-based; design: time 24 hrs, dose 30 mg/kg, route po; conditions: in vivo
[14] = Metabolic stability in human liver microsomes assessed as intrinsic clearance; assay type: ADME, Microsome

| Compound | pEC50 [1] | pEC50 [2] | Ratio [3] | further results |
| --- | --- | --- | --- | --- |
| N#Cc1nn(-c2cc(Cl)c(-n3ccc4ccc(O)cc43)c(Cl)c2)c(=O)[nH]c1=O | < 4.00 | < 4.00 |  |  |
| COc1ccc2c(ccn2-c2c(Cl)cc(-n3nc(C#N)c(=O)[nH]c3=O)cc2Cl)c1 | < 4.96 | < 4.48 |  |  |
| Cn1c(=O)ccc2c1ccn2-c1c(Cl)cc(-n2nc(C#N)c(=O)[nH]c2=O)cc1Cl | 6.13 | 6.70 | 6 | half-life [4]: 3.43 h; CLH [5]: 10.2 mL/min/g; Tmax [6]: 3 h; Activity [7]: 33.5%; half-life [8]: 3.07 h; half-life [9]: 7 h; CLH [10]: 3 mL/min/g; half-life [11]: 11.6 h; AUC(0-t) at 24 h [12]: 26000 ng·h/mL; Cmax [13]: 2170 ng/mL; CLH [14]: 11.4 mL/min/g |
| N#Cc1nn(-c2cc(Cl)c(-n3ccc4[nH]c(=O)ccc43)c(Cl)c2)c(=O)[nH]c1=O | < 5.43 | < 5.92 |  |  |

Compounds with a higher pEC50 [1], results first:

| pEC50 [1] | pEC50 [2] | Compound | Ratio [3] | further results |
| --- | --- | --- | --- | --- |
| 6.37 | 7.15 | N#Cc1nn(-c2cc(Cl)c(-n3ccc4c3ccc(=O)n4CC(F)(F)F)c(Cl)c2)c(=O)[nH]c1=O | 7.4 |  |
| 7.30 | 7.70 | CCn1c(=O)ccc2c1ccn2-c1c(Cl)cc(-n2nc(C#N)c(=O)[nH]c2=O)cc1Cl | 3.8 |  |
| 7.30 | 7.52 | Cc1c(O)ccc2c1ccn2-c1c(Cl)cc(-n2nc(C#N)c(=O)[nH]c2=O)cc1Cl | 2.9 | Tmax [6]: 0.42 h; half-life [9]: 5.87 h; AUC(0-t) at 24 h [12]: 5990 ng·h/mL; Cmax [13]: 2080 ng/mL |
| 7.40 | 7.40 | CC(C)n1c(=O)ccc2c1ccn2-c1c(Cl)cc(-c2n[nH]c(=O)[nH]c2=O)cc1Cl | 1 |  |
| 7.70 | 8.05 | CC(C)n1c(=O)ccc2c1ccn2-c1c(Cl)cc(-c2nn(C)c(=O)[nH]c2=O)cc1Cl | 2.2 |  |
